Data: ChEMBL document CHEMBL1201862, “PubChem BioAssay data set” (2004)
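Grown in 96-well plates, cells were treated for 48 hours with each compound at five concentrations. Insufficient inhibition: endpoint recorded as highest concentration tested. Abbreviation: GI50, concentration required for 50% inhibition of growth.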 Calls of active or inactive are those of the source. Cut-off read from the data, not from the text of the source: active = GI50 up to about 1.1 µM and inactive = higher.

How the values were obtained:
Test in all cases: NCI-60 cell line screen, 48 h
[1] = tested on: COLO 205
[2] = tested on: OVCAR-3
[3] = tested on: HCT-116
[4] = tested on: SK-MEL-28
[5] = tested on: OVCAR-5
[6] = tested on: HL-60
[7] = tested on: SK-MEL-2
[8] = tested on: DMS-114
[9] = tested on: CCRF-CEM
[10] = tested on: HCT-15
[11] = tested on: SN12C
[12] = tested on: UACC-62
[13] = tested on: SR
[14] = tested on: EKVX
[15] = tested on: OVCAR-4
[16] = tested on: SNB-19
[17] = tested on: Malme-3M
[18] = tested on: DLD-1
[19] = tested on: SW-620
[20] = tested on: MOLT-4
[21] = tested on: NCI-H23
[22] = tested on: SK-MEL-5
[23] = tested on: LXFL 529
[24] = tested on: M14
[25] = tested on: ACHN
[26] = tested on: SF-539
[27] = tested on: UO-31
[28] = tested on: HOP-18
[29] = tested on: KM-20L2
[30] = tested on: K562
[31] = tested on: U-251
[32] = tested on: UACC-257
[33] = tested on: IGROV-1
[34] = tested on: DMS-273
[35] = tested on: NCI-H226
[36] = tested on: A549
[37] = tested on: SF-268
[38] = tested on: SK-OV-3
[39] = tested on: HT-29
[40] = tested on: HCC 2998
[41] = tested on: NCI-H460
[42] = tested on: OVCAR-8
[43] = tested on: CAKI-1
[44] = tested on: SF-295
[45] = tested on: A498
[46] = tested on: SNB-75
[47] = tested on: NCI-H522
[48] = tested on: HOP-92
[49] = tested on: RXF 393
[50] = tested on: HOP-62
[51] = tested on: M19-MEL
[52] = tested on: 786-0
[53] = tested on: SNB-78
[54] = tested on: KM12
[55] = tested on: TK-10
[56] = tested on: RPMI-8226
[57] = tested on: XF498
[58] = tested on: LOX IMVI

Q: `CCOCN/C(N)=N\C#N` was tested. Which GI50 [1] did it give?
A: > 100 µM (inactive)

Q: What about the GI50 [2] of the same molecule?
A: > 100 µM (inactive)

Q: And the GI50 [3]?
A: > 100 µM (inactive)

Q: And the GI50 [4]?
A: > 100 µM (inactive)

Q: And the GI50 [5]?
A: > 100 µM (inactive)

Q: And the GI50 [6]?
A: > 100 µM (inactive)

Q: And the GI50 [7]?
A: > 100 µM (inactive)

Q: And the GI50 [8]?
A: > 100 µM (inactive)

Q: And the GI50 [9]?
A: > 100 µM (inactive)

Q: And the GI50 [10]?
A: 20.5 µM

Q: And the GI50 [11]?
A: > 100 µM (inactive)

Q: What about the GI50 [12] of the same molecule?
A: > 100 µM (inactive)

Q: What about the GI50 [13] of the same molecule?
A: 36.6 µM (inactive)

Q: And the GI50 [14]?
A: > 100 µM (inactive)

Q: What about the GI50 [15] of the same molecule?
A: > 10 µM (inactive)

Q: What about the GI50 [16] of the same molecule?
A: > 100 µM (inactive)

Q: What about the GI50 [17] of the same molecule?
A: > 100 µM (inactive)

Q: And the GI50 [18]?
A: > 100 µM (inactive)

Q: And the GI50 [19]?
A: 18.3 µM (inactive)

Q: What about the GI50 [20] of the same molecule?
A: > 100 µM (inactive)

Q: And the GI50 [21]?
A: > 100 µM (inactive)

Q: And the GI50 [22]?
A: > 100 µM (inactive)

Q: And the GI50 [23]?
A: > 100 µM (inactive)

Q: What about the GI50 [24] of the same molecule?
A: > 100 µM (inactive)

Q: What about the GI50 [25] of the same molecule?
A: > 100 µM (inactive)

Q: What about the GI50 [26] of the same molecule?
A: > 100 µM (inactive)

Q: And the GI50 [27]?
A: > 100 µM (inactive)

Q: What about the GI50 [28] of the same molecule?
A: > 100 µM (inactive)

Q: And the GI50 [29]?
A: 89.1 µM (inactive)

Q: And the GI50 [30]?
A: 66.1 µM (inactive)

Q: What about the GI50 [31] of the same molecule?
A: > 100 µM (inactive)

Q: What about the GI50 [32] of the same molecule?
A: > 100 µM (inactive)

Q: What about the GI50 [33] of the same molecule?
A: > 100 µM (inactive)

Q: What about the GI50 [34] of the same molecule?
A: > 100 µM (inactive)

Q: What about the GI50 [35] of the same molecule?
A: > 100 µM (inactive)

Q: What about the GI50 [36] of the same molecule?
A: > 100 µM (inactive)

Q: What about the GI50 [37] of the same molecule?
A: > 100 µM (inactive)

Q: And the GI50 [38]?
A: > 100 µM (inactive)

Q: What about the GI50 [39] of the same molecule?
A: > 100 µM (inactive)

Q: What about the GI50 [40] of the same molecule?
A: > 100 µM (inactive)

Q: And the GI50 [41]?
A: > 100 µM (inactive)

Q: And the GI50 [42]?
A: > 100 µM (inactive)

Q: And the GI50 [43]?
A: > 100 µM (inactive)

Q: And the GI50 [44]?
A: > 100 µM (inactive)

Q: What about the GI50 [45] of the same molecule?
A: > 100 µM (inactive)

Q: And the GI50 [46]?
A: > 100 µM (inactive)

Q: And the GI50 [47]?
A: > 100 µM (inactive)

Q: And the GI50 [48]?
A: > 100 µM (inactive)

Q: What about the GI50 [49] of the same molecule?
A: 61.8 µM (inactive)

Q: What about the GI50 [50] of the same molecule?
A: > 100 µM (inactive)

Q: What about the GI50 [51] of the same molecule?
A: > 100 µM (inactive)

Q: What about the GI50 [52] of the same molecule?
A: 23.9 µM (inactive)

Q: What about the GI50 [53] of the same molecule?
A: > 100 µM (inactive)

Q: What about the GI50 [54] of the same molecule?
A: > 100 µM (inactive)

Q: What about the GI50 [55] of the same molecule?
A: > 100 µM (inactive)

Q: What about the GI50 [56] of the same molecule?
A: > 100 µM (inactive)

Q: What about the GI50 [57] of the same molecule?
A: > 100 µM (inactive)

Q: What about the GI50 [58] of the same molecule?
A: 12.1 µM (inactive)
